In PubChem BioAssay AID179 (DTP/NCI, 2004):
Activity calls are given as the source filed them.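 Rule for the calls: active = compounds giving half or more protection of infected cells from virus-caused growth loss, again on retest; inactive = the rest.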 Where a SMILES comes first, the peptide text is derived from it. The star is where a group is joined. Boc = CC(C)(C)OC(=O)*; OBn = c1ccc(CO*)cc1

System: CEM cells HIV-1 protection, formazan growth assay
Experiment: NCI AIDS Antiviral Assay
Conditions: for IC50: measured here: growth of uninfected CEM cells
Outline: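 Human CEM cells, uninfected and HIV-1-infected, received five drug concentrations, and growth was read by soluble formazan assay. Compounds giving at least 50% protection were retested; reproducible 100% protection defined confirmed active.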

| Structure (SMILES) | outcome | EC50 [µM] | IC50 [µM] |
| --- | --- | --- | --- |
| CCCCNCCCNCCCNC(=O)c1csc(-c2csc(CCNC(=O)C(NC(=O)C(C)C(O)C(C)NC(=O)C(NC(=O)c3nc(C(CC(N)=O)NCC(N)C(N)=O)nc(N)c3C)C(OC3OC(CO)C(O)C(O)C3OC3OC(CO)C(O)C(OC(N)=O)C3O)c3cnc[nH]3)C(C)O)n2)n1 (centres undefined) | inactive | – | – |
| COc1ccc(/C=C2\CN(C)CC3C2=NC(=S)NC3c2ccc(OC)cc2)cc1 (centres undefined) | – | > 200 | 6.61 |
| CCn1c(N)c(N=O)c(=O)n(CC)c1=O | – | > 200 | > 200 |
| CCOC(=O)/C(C#N)=C/c1ccc(-c2ccccc2)cc1 | – | > 25.7 | > 25.7 |
| O=[N+]([O-])/C=C/c1cn(CCCCCCCCn2cc(/C=C/[N+](=O)[O-])c3ccccc32)c2ccccc12 | – | > 200 | 35.5 |
| CC(=O)Nc1ccc2c(C)c3c(nc2n1)[nH]c1ccccc13 | – | > 200 | 25.7 |
| C=CC1C2=C(C(=O)NCC2)C2OC(O)C3=C(CCNC3=O)C2C1C (centres undefined) | inactive | – | – |
| O=C1Oc2cc(O)ccc2C2OCNCC12 (centres undefined) | – | > 200 | > 200 |
| O=C(/C=C/c1ccccc1)c1cc(CN2CCOCC2)c(O)c(CN2CCOCC2)c1 | – | > 200 | 8.51 |
| Cc1ccc(S(=O)(=O)n2cc(/C=C/C#N)c(/C=C/C#N)c2)cc1 | inactive | – | – |
| COc1ccc2c(C3(C)OC(=O)c4ccccc43)cccc2c1 (centres undefined) | – | > 40.7 | > 40.7 |
| CN/C=C(\C(=O)c1ccc(OC)c(OC)c1)c1ccc(OC)cc1 | – | > 398 | 6.92 |
| C=C(C)c1nc(Oc2ccccc2)nc(Oc2ccccc2)n1 | – | > 200 | 3.55 |
| CC(C)CC(NC(=O)OC(C)(C)C)C(=O)N1CCCC1C(=O)OCc1ccccc1 (stereo not drawn) (Boc-Leu-Pro-OBn; configuration not given here) | – | > 200 | 52.5 |
| O=C(N/C(=C\c1ccccc1)C1Nc2ccccc2C(=O)O1)c1ccccc1 (centres undefined) | – | > 200 | 17.4 |
| CCC(C)C(NC(=O)C(CCCN=C(N)N)NC(=O)C(CC(=O)O)NC(=O)C(Cc1cnc[nH]1)NC(=O)C(N)CC(C)C)C(=O)NC(C(=O)NC(CC(C)C)C(=O)NC(C(=O)NC(Cc1cnc[nH]1)C(=O)O)C(C)O)C(C)CC (centres undefined) (H-LHDRIILTH-OH; configuration not given here) | – | > 44.7 | > 44.7 |
| [O-][n+]1c(-c2ccccc2)oc2ccccc21 | – | > 9.55 | > 9.55 |
| CCc1cccc(C)c1N1C(=O)C(=O)C(c2nc3ccccc3o2)/C(=N/NC(=S)NN)C1=O (centres undefined) | inactive | – | – |
| CCN(CC)CCN1C(=O)C2C3C=CC(C2C1=O)C1C2C(=O)N(CCN(CC)CC)C(=O)C2C31 (centres undefined) | – | > 200 | > 200 |
| CC(C)(C)[Si](C)(C)OCC1OC(n2ccc(=O)[nH]c2=O)C(O[Si](C)(C)C(C)(C)C)[C@@]12O[C@H]2C(N)=O (some centres undefined) | – | > 200 | 7.76 |
| N#CCCC(C#N)(CCC#N)c1ccccc1 | – | > 813 | > 813 |
| CN(C)CC1CC(=O)C(CN(C)C)CC1=O (centres undefined) | – | > 832 | 2.51 |

| Structure (SMILES) | outcome | EC50 [µM] | IC50 [µM] |
| --- | --- | --- | --- |
| CN1C(=O)/C(=N\n2c(-c3ccccc3)nc3ccccc3c2=O)c2ccccc21 | – | > 200 | > 200 |
| Cc1cn(CC2OC(CO)C(CO)O2)c(=O)[nH]c1=O (centres undefined) | – | > 457 | > 457 |
| Cc1c(-c2coc(-c3ccccc3)n2)c(=O)n(-c2ccccc2)n1C | – | > 107 | > 107 |
| O=c1/c(=C\c2ccccc2)sc2n1C(c1ccccc1)C1(O)CCCCC1N=2 (centres undefined) | – | > 200 | 60.3 |
| c1ccc2c(c1)[nH]c1cnc3c4ncccc4[nH]c3c12 | inactive | – | – |
| CCc1ccccc1N1C(=O)C(=O)C(c2nc3ccccc3s2)C(=O)C1=O | – | > 178 | 93.3 |
| Cc1nc2cc(N)c(Cl)cc2[nH]1 | – | > 200 | > 200 |
| COc1ccc(C(=O)/C=C/c2ccc(OCCSCCCCCCCCCCSCCOc3ccc(/C=C/C(=O)c4ccc(OC)c(OC)c4)cc3)cc2)cc1OC | inactive | – | – |
| CN(C)c1ccc(/C=C2\C(=O)Nc3ccccc32)cc1 | – | > 10.2 | > 10.2 |
| S=C1CCCCCN1 | – | > 1950 | 1020 |
| O=Nc1ccccc1N=O | inactive | – | – |
| N#Cc1cc([N+](=O)[O-])ccc1NC(=O)C(=O)Nn1c(=S)[nH]c2ccccc2c1=O | inactive | – | – |
| CCOC(=O)C1CSC(=N)N1C(C)=O (centres undefined) | – | 115 | 123 |
| COc1nc2c(c(=O)n1C)N=C(c1ccc(Cl)cc1)CC(c1ccccc1)N2 (centres undefined) | – | > 200 | 30.9 |
| CC1C(=O)CC[C@@]2(C)C(=O)CCCC12O (some centres undefined) | inactive | – | – |
| CC(=O)c1ccc(NC(=O)C(=O)C(C(=O)c2ccc(Cl)c(Cl)c2)C2OC(=O)c3ccccc32)cc1 (centres undefined) | – | > 87.1 | 12.6 |
| CC(C)OP(=O)(OC(C)C)/C(Cl)=N/Nc1ccc([N+](=O)[O-])cc1 | – | > 70.8 | > 70.8 |
| CC(NS(C)(=O)=O)c1ccccc1 (centres undefined) | – | > 200 | > 200 |
| CCOC(=O)C1(C(=O)OCC)C[C@]23OCCC(=O)[C@H]2[C@H]2C(=O)OC(C)(C)O[C@]23C1 | – | > 200 | > 200 |
| O=c1cc(-c2ccccc2)nc(/C=C(\O)c2ccncc2)n1-c1ccccc1 | – | > 3.98 | > 3.98 |
| O=c1c2ccccc2nc(N/N=C/c2ccc(Cl)cc2)n1-c1ccccc1 | – | > 200 | > 200 |
| COc1ccc2nc3ccc(OC)cc3c(SCc3ccc([N+](=O)[O-])cc3)c2c1 | – | > 200 | > 200 |

| Structure (SMILES) | outcome | EC50 [µM] | IC50 [µM] |
| --- | --- | --- | --- |
| C/C(CCn1[nH]c(=O)ccc1=O)=N\Nc1ccc([N+](=O)[O-])cc1[N+](=O)[O-] | inactive | – | 20 |
| COC(=O)CCCC=C(c1cc(Br)c(OC)c(C(=O)OC)c1)c1cc(Br)c(OC)c(C(=O)OC)c1 | – | 1.82 | 42.7 |
| Nc1nn2c(C(Br)Br)cc(C(Br)Br)nc2c1[N+](=O)[O-] | – | > 200 | 0.525 |
| CCOc1ccc(N2CC(=O)N3CCCN3C(=O)C2)cc1 | – | > 123 | > 123 |
| CCCCn1c(N)c(N=O)c(=O)n(CCCC)c1=O | – | > 200 | 89.1 |
| CC(=O)OCC1OC(n2cnc([N+](=O)[O-])c2Br)C(OC(C)=O)C1OC(C)=O (centres undefined) | – | > 200 | 11.7 |
| CCCSS[C@H]1NC(=O)[C@H]1NC(=O)COc1ccccc1 | – | > 21.9 | > 21.9 |
| Cc1ccc(S(=O)(=O)/C(C#N)=C/NC(=S)Nc2ccccc2)cc1 | – | 170 | > 200 |
| CC(=O)Nc1ccc(SS(=O)(=O)c2ccc(NC(C)=O)cc2)cc1 | – | > 490 | 204 |
| O=[N+]([O-])CC(SCc1ccccc1)c1ccc2c(c1)OCO2 (centres undefined) | inactive | – | – |
| Cc1ccc(S(=O)(=O)NC(=O)Nc2sc(=S)c3c(c2C#N)CCCC3)cc1 | – | > 309 | 58.9 |
| FC(F)(F)c1nc(-c2ccccc2)oc1Sc1oc(-c2ccccc2)nc1C(F)(F)F | inactive | – | – |
| N#Cc1c(C#N)c(-c2cccc([N+](=O)[O-])c2)n(-c2ccccc2)c1N | – | > 200 | 141 |
| Clc1ccc(C[P+](c2ccccc2)(c2ccccc2)c2ccccc2)c(Cl)c1 | – | > 200 | 1.48 |
| NC(CSS(=O)(=O)CC(N)C(=O)O)C(=O)O (centres undefined) | inactive | – | 63.1 |
| O=c1cn[nH]c2c(Cl)cccc12 | – | > 589 | 355 |
| CC(C(=O)c1cc(O)c(O)cc1C(O)(C(F)(F)F)C(F)(F)F)C(O)(C(F)(F)F)C(F)(F)F (centres undefined) | – | 70.8 | > 100 |
| COc1ccc(OCc2nc3cc(C(F)(F)F)ccc3nc2-c2ccccc2)cc1 | – | > 200 | > 200 |
| CC(C)(C)c1ccc(OP(=S)(NN)Oc2ccc(C(C)(C)C)cc2)cc1 | – | > 61.7 | 30.2 |
| O=C(O)c1cc(O)cc(O)c1N=Nc1ccc(/C=C/c2ccc(N=Nc3c(O)cc(O)cc3C(=O)O)cc2S(=O)(=O)O)c(S(=O)(=O)O)c1 | – | 0.813 | 91.2 |
| NC(=O)c1ncn2c1CNC(=O)C2 | – | > 200 | > 200 |
| CC(C)C1=CC2=CCC3C(C)(COC(=O)COc4ccccc4)CCCC3(C)C2CC1 (centres undefined) | – | > 200 | 46.8 |

| Structure (SMILES) | outcome | EC50 [µM] | IC50 [µM] |
| --- | --- | --- | --- |
| COC12OCCN(CCO)C1=CC(=O)C1(C)N=NC(C)C12 (centres undefined) | inactive | – | – |
| CCOc1cc2c(c(OCC)c1O)CC[C@@H]1[C@@H]2CC[C@]2(C)[C@@H](O)CC[C@@H]12 | – | > 2 | 0.776 |
| Cc1ccc(NC(=O)CCc2nnc3s/c(=C\c4cccc([N+](=O)[O-])c4)c(=O)n23)cc1 | – | > 1.74 | > 1.74 |
| CSC(SC)=C(C#N)C(N)=S | – | > 200 | 123 |
| COC(=O)C1=Nc2c(C)nn(-c3ccccc3)c2N=C(c2ccccc2)C1 | – | > 200 | > 200 |
| CC(C)(O)/C1=C/C=C/CCCCCCCCCC1 | – | > 200 | 34.7 |
| C[N+](C)(C)CCC[N+](C)(C)CCN1C(=O)c2cccc3cccc(c23)C1=O | – | > 200 | > 200 |
| COc1ccc(C2SCc3nc4ccccc4n32)cc1 (centres undefined) | inactive | – | – |
| COc1ccccc1C=C1C(=O)OC(C)(C)OC1=O | inactive | – | – |
| COc1ccc(NC(=O)C/C(C)=N\N=C(N)N)c([N+](=O)[O-])c1 | – | > 115 | > 115 |
| O=C(O)CN(CCNC(=O)OCC1c2ccccc2-c2ccccc21)CCNC(=O)OCC1c2ccccc2-c2ccccc21 | – | > 200 | 39.8 |
| O=C1C(=O)c2ccccc2C(O)=C1C1CCCCC1 | – | > 263 | 40.7 |
| COc1cc2c(cc1OC)-c1c(cc(OC)c(OC)c1OC)C2=O | inactive | – | – |
| CC(=O)NC(C(=O)O)C(C)(C)SN=O (centres undefined) | – | > 1120 | 240 |
| COc1ccc(OC)c2[nH]c(CCc3nc4c(OC)ccc(OC)c4[nH]3)nc12 | inactive | – | – |
| S=C(NC/C(Br)=C/Br)Nc1cccc2ccccc12 | – | > 200 | 36.3 |
| CNCCSSCCN | – | > 200 | > 200 |
| O=C1c2c(O)cccc2[C@H](O)[C@]23O[C@]12CC[C@]1(O)CCC[C@@H](O)[C@@H]13 | – | > 20 | 0.977 |
| Cn1cc(N)cc1C(=O)Nc1cc(C(=O)Nc2ccc3cc(S(=O)(=O)O)cc(S(=O)(=O)O)c3c2)n(C)c1 | – | 36.3 | 316 |
